The target of assay [1] is T1, PPAR delta/gamma (Homo sapiens) (UniProt P37231+Q03181). Description: Activation of […] in human HaCaT cells assessed as inhibition of cellular proliferation at 10 uM after 72 hrs. Format: cell-based.
In assay [2] the target is T1, PPAR delta/gamma (Homo sapiens). The assay is described as follows: Activation of […] in human HaCaT cells assessed as induction of ANGPTL4 expression by PCR. Format: cell-based.

The source of these data is ChEMBL document CHEMBL1177826, “Synthesis of isosteric selenium analog of the PPARbeta/delta agonist GW501516 and comparison of biological activity” (Bioorg Med Chem Lett, 2010).

The source made the active and inactive calls. The calls are words filed in the database; no cut-off is given here.

T1 sequence (P37231 whole entry, looked up): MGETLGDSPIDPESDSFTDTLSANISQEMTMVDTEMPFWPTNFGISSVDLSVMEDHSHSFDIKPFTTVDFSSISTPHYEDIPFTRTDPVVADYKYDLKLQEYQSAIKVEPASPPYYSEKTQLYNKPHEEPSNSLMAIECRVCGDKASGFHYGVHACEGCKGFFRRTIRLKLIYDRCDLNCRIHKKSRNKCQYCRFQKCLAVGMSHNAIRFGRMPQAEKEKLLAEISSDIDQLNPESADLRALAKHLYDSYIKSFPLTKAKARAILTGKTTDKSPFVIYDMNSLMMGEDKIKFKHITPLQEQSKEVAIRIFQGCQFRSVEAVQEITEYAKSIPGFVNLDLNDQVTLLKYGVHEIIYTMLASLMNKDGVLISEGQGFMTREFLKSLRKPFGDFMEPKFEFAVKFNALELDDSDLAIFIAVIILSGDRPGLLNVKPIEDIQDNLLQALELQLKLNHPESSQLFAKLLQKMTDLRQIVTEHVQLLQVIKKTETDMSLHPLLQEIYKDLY
T1 sequence (Q03181 whole entry, looked up): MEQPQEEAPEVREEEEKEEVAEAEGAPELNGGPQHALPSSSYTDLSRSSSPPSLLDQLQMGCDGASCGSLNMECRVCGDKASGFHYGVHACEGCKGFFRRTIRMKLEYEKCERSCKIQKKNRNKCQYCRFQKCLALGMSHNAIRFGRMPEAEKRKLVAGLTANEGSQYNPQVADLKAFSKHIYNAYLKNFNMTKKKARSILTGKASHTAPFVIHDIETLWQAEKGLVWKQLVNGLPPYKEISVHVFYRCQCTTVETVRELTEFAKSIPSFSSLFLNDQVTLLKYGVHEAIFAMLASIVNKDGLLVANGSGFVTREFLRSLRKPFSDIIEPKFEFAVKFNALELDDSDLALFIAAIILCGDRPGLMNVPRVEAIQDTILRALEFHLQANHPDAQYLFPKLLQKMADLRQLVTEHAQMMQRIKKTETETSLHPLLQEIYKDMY

As to `Cc1cc([Se]Cc2sc(-c3ccc(C(F)(F)F)cc3)nc2C)ccc1OCC(=O)O`, the outcome in assay [1] and in assay [2] was Active.
